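How tested: cells in 96-well plates exposed to compound for 48 hours at five concentrations. At the TGI there is no net growth.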
Legend:
Experiment in all cases: NCI anticancer screen, dose series, 48 h
HL-60(TB) leukemia = tested on: HL-60(TB) leukemia
HCC-2998 colon = tested on: HCC-2998 colon
NCI-H23 lung = tested on: NCI-H23 lung
MDA-MB-231 breast = tested on: MDA-MB-231 breast
BT-549 breast = tested on: BT-549 breast
SF-268 CNS = tested on: SF-268 CNS
LOX IMVI melanoma = tested on: LOX IMVI melanoma
MCF7 breast = tested on: MCF7 breast
786-0 renal = tested on: 786-0 renal
SN12C renal = tested on: SN12C renal
SNB-19 CNS = tested on: SNB-19 CNS
NCI/ADR-RES ovarian = tested on: NCI/ADR-RES ovarian
SW-620 colon = tested on: SW-620 colon
SR leukemia = tested on: SR leukemia
UACC-62 melanoma = tested on: UACC-62 melanoma
HCT-15 colon = tested on: HCT-15 colon
HT29 colon = tested on: HT29 colon
MOLT-4 leukemia = tested on: MOLT-4 leukemia
U251 CNS = tested on: U251 CNS
OVCAR-5 ovarian = tested on: OVCAR-5 ovarian
EKVX NSCLC = tested on: EKVX NSCLC
SK-MEL-2 melanoma = tested on: SK-MEL-2 melanoma
OVCAR-3 ovarian = tested on: OVCAR-3 ovarian
PC-3 prostate = tested on: PC-3 prostate
NCI-H226 lung = tested on: NCI-H226 lung
MALME-3M melanoma = tested on: MALME-3M melanoma
SF-295 CNS = tested on: SF-295 CNS
K-562 leukemia = tested on: K-562 leukemia
TK-10 renal = tested on: TK-10 renal
HS 578T breast = tested on: HS 578T breast
ACHN renal = tested on: ACHN renal
UO-31 renal = tested on: UO-31 renal
UACC-257 melanoma = tested on: UACC-257 melanoma
OVCAR-8 ovarian = tested on: OVCAR-8 ovarian
MDA-N = tested on: MDA-N
NCI-H460 lung = tested on: NCI-H460 lung
DU-145 prostate = tested on: DU-145 prostate
OVCAR-4 ovarian = tested on: OVCAR-4 ovarian
M14 melanoma = tested on: M14 melanoma
CCRF-CEM leukemia = tested on: CCRF-CEM leukemia
A549 NSCLC = tested on: A549 NSCLC
NCI-H522 lung = tested on: NCI-H522 lung
MDA-MB-435 = tested on: MDA-MB-435
SF-539 CNS = tested on: SF-539 CNS
T-47D breast = tested on: T-47D breast
SK-MEL-5 melanoma = tested on: SK-MEL-5 melanoma
IGROV1 ovarian = tested on: IGROV1 ovarian
HOP-62 NSCLC = tested on: HOP-62 NSCLC
CAKI-1 renal = tested on: CAKI-1 renal
A498 renal = tested on: A498 renal
KM12 colon = tested on: KM12 colon
HCT-116 colon = tested on: HCT-116 colon
RXF 393 renal = tested on: RXF 393 renal
SK-MEL-28 melanoma = tested on: SK-MEL-28 melanoma
COLO 205 colon = tested on: COLO 205 colon
RPMI-8226 leukemia = tested on: RPMI-8226 leukemia
HOP-92 NSCLC = tested on: HOP-92 NSCLC
SK-OV-3 ovarian = tested on: SK-OV-3 ovarian

Question: What does the source list for `O=C(O)c1cc(/C=C/c2cc(O)ccc2O)ccc1O`?
Answer: TGI (HL-60(TB) leukemia): > 10 µM; TGI (HCC-2998 colon): > 10 µM; TGI (NCI-H23 lung): > 10 µM; TGI (MDA-MB-231 breast): > 10 µM; TGI (BT-549 breast): > 10 µM; TGI (SF-268 CNS): > 10 µM; TGI (LOX IMVI melanoma): > 10 µM; TGI (MCF7 breast): > 10 µM; TGI (786-0 renal): > 10 µM; TGI (SN12C renal): > 10 µM; TGI (SNB-19 CNS): > 10 µM; TGI (NCI/ADR-RES ovarian): > 10 µM; TGI (SW-620 colon): > 10 µM; TGI (SR leukemia): > 10 µM; TGI (UACC-62 melanoma): > 10 µM; TGI (HCT-15 colon): > 10 µM; TGI (HT29 colon): > 10 µM; TGI (MOLT-4 leukemia): > 10 µM; TGI (U251 CNS): > 10 µM; TGI (OVCAR-5 ovarian): > 10 µM; TGI (EKVX NSCLC): > 10 µM; TGI (SK-MEL-2 melanoma): > 10 µM; TGI (OVCAR-3 ovarian): > 10 µM; TGI (PC-3 prostate): > 10 µM; TGI (NCI-H226 lung): > 10 µM; TGI (MALME-3M melanoma): > 10 µM; TGI (SF-295 CNS): > 10 µM; TGI (K-562 leukemia): > 10 µM; TGI (TK-10 renal): > 10 µM; TGI (HS 578T breast): > 10 µM; TGI (ACHN renal): > 10 µM; TGI (UO-31 renal): > 10 µM; TGI (UACC-257 melanoma): > 10 µM; TGI (OVCAR-8 ovarian): > 10 µM; TGI (MDA-N): > 10 µM; TGI (NCI-H460 lung): > 10 µM; TGI (DU-145 prostate): > 10 µM; TGI (OVCAR-4 ovarian): > 10 µM; TGI (M14 melanoma): > 10 µM; TGI (CCRF-CEM leukemia): > 10 µM; TGI (A549 NSCLC): > 10 µM; TGI (NCI-H522 lung): > 10 µM; TGI (MDA-MB-435): > 10 µM; TGI (SF-539 CNS): > 10 µM

Question: Which results are given for `c1cc2c(c(NC3=NCCO3)c1)CCC2`?
Answer: TGI (T-47D breast): > 100 µM; TGI (HL-60(TB) leukemia): > 100 µM; TGI (NCI-H23 lung): > 100 µM; TGI (MDA-MB-231 breast): > 100 µM; TGI (SF-268 CNS): > 100 µM; TGI (LOX IMVI melanoma): > 100 µM; TGI (SK-MEL-5 melanoma): > 100 µM; TGI (MCF7 breast): > 100 µM; TGI (IGROV1 ovarian): > 100 µM; TGI (786-0 renal): > 100 µM; TGI (SN12C renal): > 100 µM; TGI (SNB-19 CNS): > 100 µM; TGI (NCI/ADR-RES ovarian): > 100 µM; TGI (HOP-62 NSCLC): > 100 µM; TGI (SW-620 colon): > 100 µM; TGI (SR leukemia): > 100 µM; TGI (UACC-62 melanoma): > 100 µM; TGI (HCT-15 colon): > 100 µM; TGI (CAKI-1 renal): > 100 µM; TGI (A498 renal): > 100 µM; TGI (HT29 colon): > 100 µM; TGI (KM12 colon): > 100 µM; TGI (MOLT-4 leukemia): > 100 µM; TGI (HCT-116 colon): > 100 µM; TGI (U251 CNS): > 100 µM; TGI (OVCAR-5 ovarian): > 100 µM; TGI (EKVX NSCLC): > 100 µM; TGI (SK-MEL-2 melanoma): > 100 µM; TGI (OVCAR-3 ovarian): > 100 µM; TGI (PC-3 prostate): > 100 µM; TGI (RXF 393 renal): > 100 µM; TGI (NCI-H226 lung): > 100 µM; TGI (MALME-3M melanoma): > 100 µM; TGI (SF-295 CNS): > 100 µM; TGI (K-562 leukemia): > 100 µM; TGI (TK-10 renal): > 100 µM; TGI (HS 578T breast): > 100 µM; TGI (SK-MEL-28 melanoma): > 100 µM; TGI (ACHN renal): > 100 µM; TGI (UO-31 renal): > 100 µM; TGI (COLO 205 colon): > 100 µM; TGI (UACC-257 melanoma): > 100 µM; TGI (RPMI-8226 leukemia): > 100 µM; TGI (HOP-92 NSCLC): > 100 µM; TGI (SK-OV-3 ovarian): > 100 µM; TGI (OVCAR-8 ovarian): > 100 µM; TGI (MDA-N): > 100 µM; TGI (NCI-H460 lung): > 100 µM; TGI (DU-145 prostate): > 100 µM; TGI (OVCAR-4 ovarian): > 100 µM; TGI (M14 melanoma): > 100 µM; TGI (CCRF-CEM leukemia): > 100 µM; TGI (A549 NSCLC): > 100 µM; TGI (NCI-H522 lung): > 100 µM; TGI (MDA-MB-435): > 100 µM; TGI (SF-539 CNS): > 100 µM

— PubChem BioAssay (NCI)
